Laboratory results from patent US20030225081A1, “Pyridazinones and triazinones and medicinal use thereof” (priority 2000, published 2003).

Tested on: AMPA receptor
Experiment: Suppressing action to calcium influx into nerve cells induced by AMPA
Type: cell-based
Conditions: Fura2-AM, stimulation with 2 μM AMPA, primary culture of rat embryo cerebral cortex nerve cells, 1 μM MK-801
Source text: Suppressing Action to Calcium Influx into Nerve Cells Induced by AMPA
The suppressing action of the compounds of the present invention to calcium influx into nerve cells induced by AMPA was investigated using the primary culture system of nerve cells of cerebral cortex of embryo of rat.
Cerebral cortex was cut out from the brain of rat of gestational 18 days and treated with trypsin and DNase to disperse the cells. The cells were flown by MEM containing 10% of serum, sown in a culture bottle and astrocytes were proliferated. The astrocytes were re-dispersed by trypsin and sown in a 96-well plate. After incubation for one week, it was confirmed that the astrocytes covered all over the bottom and then the nerve cells of cerebral cortex which was dispersed by the above method were sown thereupon. After incubation for 24 hours, the medium was changed, the incubation was carried out for one week and, after that, the medium was changed to that containing 1 μM of MK-801. Nerve cells which were incubated for not shorter than 8 to 10 days were used.
Calcium influx into the cells was measured using Fura2-AM which was a calcium-sensitive fluorescent dye. It was treated in a medium containing Fura2-AM for 1 hour, incorporated into the cells, exchanged to a Tyrode solution containing 1 μM MK-801 and stimulation was carried out using 2 μM AMPA. Change in the amount of calcium flown into the cells were measured as the change in the fluorescent intensity at the exciting wave length of 340/380 nm. […] As the control compound, GYKI52466 (Le Peillet, et al., Brain Res., 571, 115, 1992) was used.

N#Cc1ccccc1N1CC(c2ccccn2)=NN(c2ccccc2)C1=O [Example 104, 4-(2-Cyanophenyl)-2-phenyl-6-(2-pyridyl)-4,5-dihydro-1,2,4-triazin-3 (2H)-one]
IC50: 500 nM

O=C1N(c2ccsc2)CC(c2ccccn2)=NN1c1ccccc1 [Example 105, 2-Phenyl-6-(2-pyridyl)-4-(thiophen-3-yl)-4,5-dihydro-1,2,4-triazin-3 (2H)-one]
IC50: 200 nM

COc1ccccc1C1CC(c2ccccn2)=NN(c2ccccc2C#N)C1=O (centres unmarked) [Example 39, 2-(2-Cyanophenyl)-4-(2-methoxyphenyl)-6-(2-pyridyl)-4,5-dihydro-3 (2H)-pyridazinone]
IC50: 50 nM

O=c1c(-c2cccnc2)c2c(nn1-c1ccccc1I)-c1ccccc1OC2 [Example 58, 2-(2-Iodophenyl)-4-(3-pyridyl)-2,3-dihydro-5H-(1)benzopyrano[4,3-c]pyridazin-3-one]
IC50: 400 nM

O=C1C(c2ccccc2)CC(c2ccccn2)=NN1c1ccccc1F (centres unmarked) [Example 28, 2-(2-Fluorophenyl)-4-phenyl-6-(2-pyridyl)-4,5-dihydro-3 (2H)-pyridazinone]
IC50: 100 nM

O=C1C(c2ccccc2O)CC(c2cccnc2)=NN1c1ccccc1Br (centres unmarked) [Example 34, 2-(2-Bromophenyl)-4-(2-hydroxyphenyl)-6-(3-pyridyl)-4,5-dihydro-3 (2H)-pyridazinone]
IC50: 300 nM

N#Cc1ccccc1-c1cc(-c2ccccn2)nn(-c2ccccc2)c1=O [Example 23, 4-(2-Cyanophenyl)-2-phenyl-6-(2-pyridyl)-3 (2H)-pyridazinone]
IC50: 100 nM

N#Cc1ccccc1-n1nc2c(c(-c3ccccc3)c1=O)COc1ccccc1-2 [Example 7, 2-(2-Cyanophenyl)-4-phenyl-2,3-dihydro-5H-(1)benzopyrano[4,3-c]pyridazin-3-one]
IC50: 200 nM

COc1ccc(N2CC(c3ccccn3)=NN(c3ccccc3)C2=O)c(OC)c1 [Example 107, 4-(2,4-Dimethoxyphenyl)-2-phenyl-6-(2-pyridyl)-4,5-dihydro-1,2,4-triazin-3 (2H)-one]
IC50: 300 nM

O=c1c(-c2ccccn2)cc(-c2ccccc2O)nn1-c1ccccc1Br [Example 31, 2-(2-Bromophenyl)-6-(2-hydroxyphenyl)-4-(2-pyridyl)-3 (2H)-pyridazinone]
IC50: 900 nM

N#Cc1ccccc1N1N=C(c2ccccn2)CN(c2ccsc2)C1=O [Example 101, 2-(2-Cyanophenyl)-6-(2-pyridyl)-4-(thiophene-3-yl)-4,5-dihydro-1,2,4-triazin-3 (2H)-one]
IC50: 100 nM

O=c1c(-c2cccc(OCCO)c2)cc(-c2ccccn2)nn1-c1ccccc1Br [Example 3, 2-(2-Bromophenyl)-4-[3-(2-hydroxyethoxy)phenyl]-6-(2-pyridyl)-3 (2H)-pyridazinone]
IC50: 200 nM

N#Cc1ccccc1N1N=C2c3ccccc3OCC2C(c2ccccc2)C1=O (centres unmarked) [Example 6, 2-(2-Cyanophenyl)-4-phenyl-2,3,4,4a-tetrahydro-5H-(1)benzopyrano[4,3-c]pyridazin-3-one]
IC50: 100 nM

COc1ccccc1C1=NN(c2ccccc2Br)C(=O)N(c2ccccc2)C1 [Example 89, 2-(2-Bromophenyl)-6-(2-methoxyphenyl)-4-phenyl-4,5-dihydro-1,2,4-triazin-3 (2H)-one]
IC50: 5000 nM

COc1ccccc1C1CC(c2ccccn2)=NN(c2ccccc2I)C1=O (centres unmarked) [Example 17, 2-(2-Iodophenyl)-4-(2-methoxyphenyl)-6-(2-pyridyl)-4,5-dihydro-3 (2H)-pyridazinone]
IC50: 200 nM

O=c1c(-c2cccnc2)cc(-c2ccccn2)nn1-c1ccsc1 [Example 73, 2-(Thiophen-3-yl)-4-(3-pyridyl)-6-(2-pyridyl)-3 (2H)-pyridazinone]
IC50: 1100 nM

COc1ccccc1C1=NN(c2ccccc2C#N)C(=O)N(c2ccccn2)C1 [Example 99, 2-(2-Cyanophenyl)-6-(2-methoxyphenyl)-4-(2-pyridyl)-4,5-dihydro-1,2,4-triazin-3 (2H)-one]
IC50: 70 nM

N#Cc1ccccc1-n1nc(-c2ccccn2)cc(-c2cccc(OCCO)c2)c1=O [Example 4, 2-(2-Cyanophenyl)-4-[3-(2-hydroxyethoxy)phenyl]-6-(2-pyridyl)-3 (2H)-pyridazinone]
IC50: 60 nM

O=C1N(c2ccccc2O)CC(c2ccccn2)=NN1c1ccccc1Br [Example 86, 2-(2-Bromophenyl)-4-(2-hydroxyphenyl)-6-(2-pyridyl)-4,5-dihydro-1,2,4-triazin-3 (2H)-one]
IC50: 100 nM

O=C1N(c2ccccc2)CC(c2ccccc2)=NN1c1ccccc1Br [Example 112, 2-(2-Bromophenyl)-4,6-diphenyl-4,5-dihydro-1,2,4-triazin-3 (2H)-one]
IC50: 300 nM

COc1ccccc1C1=NN(c2ccccc2Br)C(=O)N(c2ccsc2)C1 [Example 108, 2-(2-Bromophenyl)-6-(2-methoxyphenyl)-4-(thiophen-3-yl)-4,5-dihydro-1,2,4-triazin-3 (2H)-one]
IC50: 4000 nM

O=C1N(c2ccc(F)cc2)CC(c2ccccn2)=NN1c1ccccc1Br [Example 122, 2-(2-Bromophenyl)-4-(4-fluorophenyl)-6-(2-pyridyl)-4,5-dihydro-1,2,4-triazin-3 (2H)-one]
IC50: 200 nM

O=C1C(c2ccccc2)CC(c2cccnc2)=NN1c1ccccc1Br (centres unmarked) [Example 20, 2-(2-Bromophenyl)-4-phenyl-6-(3-pyridyl)-4,5-dihydro-3 (2H)-pyridazinone]
IC50: 100 nM

N#Cc1ccccc1-n1nc(-c2nccs2)cc(-c2ccccc2)c1=O [Example 83, 2-(2-Cyanophenyl)-4-phenyl-6-(thiazol-2-yl)-3 (2H)-pyridazinone]
IC50: 600 nM

N#Cc1ccccc1-n1nc(-c2ccccn2)cc(-c2ccccc2Br)c1=O [Example 47, 4-(2-Bromophenyl)-2-(2-cyanophenyl)-6-(2-pyridyl)-3 (2H)-pyridazinone]
IC50: 200 nM

N#Cc1ccccc1N1CC(c2ccccn2)=NN(c2ccccc2Br)C1=O [Example 111, 2-(2-Bromophenyl)-4-(2-cyanophenyl)-6-(2-pyridyl)-4,5-dihydro-1,2,4-triazin-3 (2H)-one]
IC50: 400 nM

COc1ccccc1C1CC(c2ccccn2)=NN(c2ccccc2)C1=O (centres unmarked) [Example 18, 4-(2-Methoxyphenyl)-2-phenyl-6-(2-pyridyl)-4,5-dihydro-3 (2H)-pyridazinone]
IC50: 100 nM

N#Cc1ncccc1-n1nc(-c2ncccn2)cc(-c2ccccc2)c1=O [Example 81B, 2-(2-Cyanopyridin-3-yl)-4-phenyl-6-(2-pyrimidinyl)-3 (2H)-pyridazinone]
IC50: 700 nM

O=Cc1cccc(N2CC(c3ccccn3)=NN(c3ccccc3Br)C2=O)c1 [Example 123, 2-(2-Bromophenyl)-4-(3-formylphenyl)-6-(2-pyridyl)-4,5-dihydro-1,2,4-triazin-3 (2H)-one]
IC50: 300 nM

COc1ccc(Br)cc1-c1cc(-c2ccccn2)nn(-c2ccccc2C#N)c1=O [Example 44, 2-(2-Cyanophenyl)-4-(3-bromo-6-methoxyphenyl)-6-(2-pyridyl)-3 (2H)-pyridazinone]
IC50: 200 nM

O=C1C(c2ccccc2Br)CC(c2ccccn2)=NN1c1ccccc1 (centres unmarked) [Example 25, 4-(2-Bromophenyl)-2-phenyl-6-(2-pyridyl)-4,5-dihydro-3 (2H)-pyridazinone]
IC50: 200 nM

COc1ccccc1-c1cc(-c2ccccn2)c(=O)n(-c2ccccc2Br)n1 [Example 5, 2-(2-Bromophenyl)-6-(2-methoxyphenyl)-4-(2-pyridyl)-3 (2H)-pyridazinone]
IC50: 6700 nM
